In patent US7524823B2, “Macrolides” (Basilea Pharmaceutica AG, priority 2005, dated 2009) one finds MIC data, which are given here for six molecules.

Common to all, as to assay type: cell-based
Assay [1] concerns Escherichia coli ATCC 25922. Nature of the assay: MIC by broth microdilution (CAMHB, NCCLS). The note with it: code C: Escherichia coli ATCC 25922. Here is the method: (§1) MIC values for non-anaerobes were obtained by broth microdilution using CAMHB (BBL) according to NCCLS guidelines (National Committee for Clinical Laboratory Standards. Methods for dilution antimicrobial susceptibility tests for bacteria that grow aerobically, 5th ed. Approved standard M7-A6. NCCLS, Wayne, Pa., 2003). Drugs were dissolved in DMSO prior to dispensing into 96-well microtitre plates; the concentration of DMSO in assay wells never exceeded 2% (v/v). CAMHB was supplemented with 5% (v/v) horse serum (Sigma, cat. no. H-1270) in lieu of laked horse blood for cultivation of Streptococcus pneumoniae, and with 5% (v/v) Fildes enrichment (BBL, cat. no. 220810) supernate in lieu of Haemophilus Test Medium and additives for cultivation of Haemophilus influenzae (Pankuch G A, Hoellman D B, Lin G, Bajaksouzian S, Jacobs M R, Appelbaum P C. Activity of HMR 3647 compared to those of five agents against Haemophilus influenzae and Moraxella catarrhalis by MIC determination and time-kill assay. Antimicrob. Agents Chemother. November 1998; 42(11): 3032-4). Activities expressed as the minimal inhibitory concentrations (MICs) (μg/ml) are given in the following Table 3, and the microorganisms used for testing are listed in Table 2 below.
(Dilution methods test growth across graded concentrations, often in twofold steps.)

Assay [2] has as its system Staphylococcus aureus 1086. Nature of the assay: MIC by broth microdilution (CAMHB, NCCLS). The note with it: code B: Staphylococcus aureus 1086. Here is the method: as §1
The test system of assay [3] is Staphylococcus aureus ATCC 29213. Nature of the assay: MIC by broth microdilution (CAMHB, NCCLS). The note with it: code A: Staphylococcus aureus ATCC 29213. Here is the method: as §1
Assay [4] relates to Streptococcus pneumoniae 1/1. The assay can be described thus: MIC by broth microdilution (CAMHB + 5% horse serum, NCCLS). The note with it: code D: Streptococcus pneumoniae 1/1. Here is the method: as §1
Assay [5] has as its system Streptococcus pneumoniae SL199T. Described as above. The note with it: code E: Streptococcus pneumoniae SL199T. Here is the method: as §1
Assay [6] deals with Streptococcus pneumoniae Tupelo. The description is as above. The note with it: code F: Streptococcus pneumoniae Tupelo. Here is the method:
as §1

Assay [7] has as its system Haemophilus influenzae 12214. The assay can be described thus: MIC by broth microdilution (CAMHB + 5% Fildes enrichment, NCCLS). The note with it: code G: Haemophilus influenzae 12214. Here is the method: as §1
Assay [8] deals with Haemophilus influenzae QK50. The description is as above. The note with it: code H: Haemophilus influenzae QK50. Here is the method:
as §1

Assay [9] deals with Propionibacterium acnes EG7NS. Nature of the assay: MIC by anaerobic broth microdilution (WCB, NCCLS). The note with it: code I: Propionibacterium acnes EG7NS, anaerobic, 35-37° C., 48 h. Here is the method: (§2) MIC values towards strains of propionibacteria were obtained by broth microdilution using WCB (Anaerobe Broth MIC, Difco) according to NCCLS guidelines (National Committee for Clinical Laboratory Standards. Methods for anti-microbial susceptibility testing of anaerobic bacteria, 5th ed.; approved standard. NCCLS publication no. M11-A5. NCCLS, Wayne, Pa., 2001). Microtitre plates were loaded into 7-L GENbox anaerobic incubation jars (BioMérieux, cat. no. 96 128) fitted with anaerobic atmosphere generators (BioMérieux, cat. no. 96 124) and a Dry Anaerobic Indicator Strip (BBL, cat. no. 271051). Under these conditions, an O2 concentration <0.1% was achieved by 2.5 h, and a CO2 concentration >15% by 24 h. MIC values were read after incubation at 35-37° C. for 48 h (Table 3).

For assay [10], the system named is Propionibacterium acnes SW101T. The assay can be described thus: MIC by anaerobic broth microdilution (WCB, NCCLS). The note with it: code K: Propionibacterium acnes SW101T, 35-37° C., 48 h. Here is the method: as §2
Setting [11] is: Cutibacterium acnes, read-out: MIC.

≈ marks a conversion by molar mass, not a printed value. Like-named read-outs stand apart in the source and are kept apart here.

For the molecule `CC[C@H]1OC(=O)[C@H](C)[C@@H](O[C@H]2C[C@@](C)(OC)[C@@H](O)[C@H](C)O2)[C@H](C)[C@@H](O[C@@H]2O[C@H](C)C[C@H](N(C)C)[C@H]2O)[C@](C)(OC)C[C@@H](C)C(=O)[C@H](C)[C@H]2[C@H](SCC(=O)c3ccc4c(c3)OCO4)C(=O)O[C@@]21C` [Example 29], the MIC in [1] was 32 µg/mL (≈ 33.1 µM); in assay [2], greater than 32 µg/mL; in assay [3] it was 1 µg/mL (≈ 1.03 µM); in assay [4], “<=0.06 μg/ml”; in [5] it was 4 µg/mL; in assay [6] it was 4 µg/mL. The MIC in [7] was 4 µg/mL; in [8], 4 µg/mL; in [9], “<=0.06 μg/ml”; in assay [10], greater than 32 µg/mL.
With `CN(C)[C@@H]1C(O)=C(C(N)=O)C(=O)[C@@]2(O)C(O)=C3C(=O)c4c(O)cccc4[C@@](C)(O)[C@H]3C[C@@H]12` [Tetracycline, reference compound], the MIC in assay [9] (setting [11]) is no more than 0.06 µg/mL; in assay [10] (setting [11]), 32 µg/mL (≈ 72 µM).
Regarding `CC[C@H]1OC(=O)[C@H](C)[C@@H](O[C@H]2C[C@@](C)(OC)[C@@H](O)[C@H](C)O2)[C@H](C)[C@@H](O[C@@H]2O[C@H](C)C[C@H](N(C)C)[C@H]2O)[C@](C)(OC)C[C@@H](C)C(=O)[C@H](C)[C@H]2[C@H](SCCCn3cnc4c(N)ncnc43)C(=O)O[C@@]21C` [Example 16], the MIC result in [1] was “>=32 μg/ml”; in [2] it was greater than 32 µg/mL; in assay [3], 1 µg/mL (≈ 1.02 µM); in assay [4], “<=0.06 μg/ml”; in assay [5], 0.125 µg/mL; in assay [6], 0.5 µg/mL. For the same molecule, the MIC amounted to 2 µg/mL in assay [7], 2 µg/mL in assay [8], 0.125 µg/mL (≈ 0.128 µM) in [9] and 1 µg/mL (≈ 1.02 µM) in assay [10].
Regarding `CC[C@H]1OC(=O)[C@H](C)[C@@H](O[C@H]2C[C@@](C)(OC)[C@@H](O)[C@H](C)O2)[C@H](C)[C@@H](O[C@@H]2O[C@H](C)C[C@H](N(C)C)[C@H]2O)[C@](C)(OC)C[C@@H](C)C(=O)[C@H](C)[C@H]2[C@H](SCCn3cnc4ccccc43)C(=O)O[C@@]21C` [Example 19], the MIC was greater than 32 µg/mL in [1]; greater than 32 µg/mL in [2]; 1 µg/mL (≈ 1.05 µM) in assay [3]; “<=0.06 μg/ml” in [4]; 0.5 µg/mL in assay [5]; 1 µg/mL in [6]. For the same molecule, the MIC in [7] was 2 µg/mL; in assay [8], 2 µg/mL; in assay [9], “<=0.06 μg/ml”; in assay [10] it was 4 µg/mL (≈ 4.22 µM).
For `CC[C@H]1OC(=O)[C@H](C)[C@@H](O[C@H]2C[C@@](C)(OC)[C@@H](O)[C@H](C)O2)[C@H](C)[C@@H](O[C@@H]2O[C@H](C)C[C@H](N(C)C)[C@H]2O)[C@](C)(OC)C[C@@H](C)C(=O)[C@H](C)[C@H]2[C@H](SCC(=O)Nc3ccc(C(=O)OC)c(OC)c3)C(=O)O[C@@]21C` [Example 24], the MIC is greater than 32 µg/mL in assay [1]; “>=32 μg/ml” in assay [2]; 1 µg/mL (≈ 0.975 µM) in assay [3]; “<=0.06 μg/ml” in assay [4]; 4 µg/mL in assay [5]; 8 µg/mL in assay [6]. The MIC is 8 µg/mL in [7], 8 µg/mL in assay [8], “<=0.06 μg/ml” in assay [9] and greater than 32 µg/mL in assay [10].
Take `CCC[C@@H]1C[C@@H](C(=O)N[C@@H]([C@H]2O[C@H](SC)[C@H](O)[C@@H](O)[C@H]2O)[C@H](C)Cl)N(C)C1` [Clindamycin, reference compound]: the MIC in assay [9] (setting [11]) was no more than 0.06 µg/mL; in assay [10] (setting [11]) it was greater than 32 µg/mL.
